In patent publication US20060148694A1, “Inhibition of stress-induced ligand-dependent egfr activation” (Max-Planck-Gesellschaft zur Foerderung der Wessenschaften. …, priority 2003, published 2006):

Assays:
ERK1/2 [1] = experiment: ERK1/2 phosphorylation immunoblot in NCI-H292 cells; type: cell-based, human; settings: AG1478 250 nM, BB94 10 μM, Crm197 10 μg/mL, FIG. 6A
Method: (§1) FIG. 6. MAPK activation in response to stress agents and blockade of EGFR, metalloprotease and HB-EGF function. (A) Cos-7 cells transiently transfected with pcDNA3-HA-ERK2, TCC-Sup and NCI-H292 cells were pre-treated with AG1478 (250 nM), BB94 (10 μM), Crm197 (10 μg/mL) or an equal volume of empty vehicle (DMSO) for 20 min and stimulated with 0.3 M sorbitol or 200 μM hydrogen peroxide for 30 min. After cell lysis total lysates were immunoblotted with anti-phospho-ERK antibody, followed by reprobing of the same membranes with polyclonal anti-ERK antibody. Quantitative analysis of ERK phosphorylation from three independent experiments (mean[…]s.d.) using the FUJI LAS1000 imaging system. (B) Cos-7 and NCI-H292 cell were treated as described under (A). After lysis, JNK was immunoprecipitated using an anti-JNK antibody, and JNK activity was assayed using GST-c-JUN fusion protein as a substrate. Phosphorylated GST-c-JUN was visualized by autoradiography and JNK was immunoblotted in parallel using polyclonal JNK antibody. Quantitative analysis of GST-c-JUN phosphorylation from three independent experiments (mean[…]s.d.) using the FUJI LAS1000 imaging system. TCC-Sup cells were treated as described under (A). […]
(§2) Cells were lysed and proteins immunoprecipitated as described before (Daub et al., 1997). […] Phosphotyrosine was detected with the 4G10 monoclonal antibody (UBI, Lake Placid, N.Y.). […]

ERK1/2 [2] = experiment: ERK1/2 phosphorylation immunoblot in TCC-Sup cells; type: cell-based, human; settings: AG1478 250 nM, BB94 10 μM, Crm197 10 μg/mL, FIG. 6A
Method: as §1, §2

p38 [3] = experiment: p38 phosphorylation immunoblot in Cos-7 cells; type: cell-based; settings: AG1478 250 nM 20 min, 0.3 M sorbitol or 200 μM hydrogen peroxide, FIG. 2A
Method: FIG. 2. p38 mediates stress-induced EGFR phosphorylation. (A) Time-coure of p38 phosphorylation dependent on EGFR kinase function. Cos-7 cells were pretreated with AG1478 (250 nM) or an equal volume of empty vehicle (DMSO) for 20 min and stimulated with 0.3 M sorbitol or 200 μM hydrogen peroxide for the indicated periods. Cell extracts were immunoblotted with anti-phospho-p38 antibody and reprobing of the same filters with polyclonal anti-p38 antibody. (B) Stress-induced EGFR activation depends on p38 but not ERK activity in Cos-7 cells. Cos-7 cells were pre-treated with PD98059 (50 μM), SB202190 (10 μM) or an equal volume of empty vehicle (DMSO) for 30 min and stimulated with 0.3 M sorbitol and 200 μM hydrogen peroxide for 10 min and the GPCR agonist LPA (10 μM) or EGF (2 ng/mL) for 3 min as positive controls. Cell extracts were assayed for EGFR tyrosine phosphorylation content. (C) Stress-induced EGFR activation depends on p38 activity in TCC-Sup carcinoma cells. […]
FIG. 6. […] Quantitative analysis of ERK phosphorylation from three independent experiments (mean[…]s.d.) using the FUJI LAS1000 imaging system. […] Quantitative analysis of GST-c-JUN phosphorylation from three independent experiments (mean[…]s.d.) using the FUJI LAS1000 imaging system. […]

ERK1/2 [4] = experiment: ERK1/2 phosphorylation immunoblot in Cos-7 cells (pcDNA3-HA-ERK2); type: cell-based; settings: AG1478 250 nM, BB94 10 μM, Crm197 10 μg/mL 20 min, stimulated 30 min, FIG. 6A
Method: as §1, §2

EGFR [5] = experiment: EGFR tyrosine phosphorylation (IP/immunoblot) in NCI-H292 lung carcinoma cells; type: cell-based, human; settings: for stress-induced EGFR activation upon siRNA transfection: 0.3 M sorbitol or 200 μM hydrogen peroxide 10 min
EGFR [6] = experiment: EGFR tyrosine phosphorylation (IP/immunoblot) in Cos-7 cells; type: cell-based; settings: for stress-induced EGFR activation: pre-treated 30 min with SB202190 10 μM or PD98059 50 μM, 0.3 M sorbitol or 200 μM hydrogen peroxide 10 min; for EGFR activation by oxidative stress: Src inhibitors, unpublished data; for EGFR activation after sorbitol or hydrogen peroxide upon siRNA transfection: both stress stimuli, 10 min, FIG. 5B
p38 [7] = experiment: p38 activation immunoblot in TCC-Sup cells after doxorubicin; type: cell-based, human; settings: doxorubicin treatment, FIG. 7A
Method: FIG. 7. Doxorubicin-induced cell death of TCC-Sup carcinoma cells. (A) p38 activation in response to doxorubicin treatment. TCC-Sup cells were seeded and treated with doxorubicin for the indicated time points. After cell lysis, p38 activation was assessed by immunoblotting cell extracts with anti-phospho-p38 antibody and reprobing of the same filters with anti-p38 antibody. (B) Blockade of HB-EGF function enhances cell-death in response to doxorubicin. Cells were treated for 72 h with 10 μM doxorubicin and 10 μg/mL Crm197 every 24 h as indicated. After collection of cells in assay buffer, nuclei were stained with PI and analyzed by flow cytometric analysis.
Cells were lysed and proteins immunoprecipitated as described before (Daub et al., 1997). Prior to lysis, cells grown to 80% confluence were treated with inhibitors and agonists as indicated in the figure legends and then lysed for 10 min on ice in buffer containing 50 mM HEPES, pH 7.5, 150 mM NaCl, 1% Triton X-100, 1 mM EDTA, 10% glycerol, 10 mM sodium pyrophosphate, 2 mM sodium orthovanadate, 10 mM sodium fluoride, 1 mM phenylmethylsulfonyl fluoride, and 10 μg/mL aprotinin. Lysates were precleared by centrifugation at 13,000 rpm for 10 min at 4° C. […] Phosphotyrosine was detected with the 4G10 monoclonal antibody (UBI, Lake Placid, N.Y.). […]

[8] = target: epidermal growth factor receptor (EGFR) (UniProt P00533); experiment: cell-based or functional assay
ADAM9 = experiment: RNA interference, gene expression by RT-PCR in NCI-H292 cells; type: cell-based, human; settings: 2 days after transfection, FIG. 5A
Method: (§3) FIG. 5. Effect of siRNAs against different ADAM proteins on stress-induced EGFR phosphorylation. (A) Blockade of ADAM metalloprotease expression by RNA interference (RNAi). NCI-H292 cells were transfected with siRNA against ADAM9, ADAM10 or ADAM15, cultured for 2 days and analyzed for gene expression by RT-PCR as indicated. (B) Cos-7 cells were transfected with siRNAs against ADAM9, -10, -12, -15 and -17, serum-starved for 24 hours, stimulated with 0.3 M sorbitol or 200 μM hydrogen peroxide for 10 min and assayed for EGFR tyrosine phosphorylation content. (C)NCI-H292 cells were treated as described under (B).
(§4) Transfection of 21-nucleotide siRNA duplexes (Dharmacon Research, Lafayette, Colo., USA) for targeting endogenous genes was carried out using Oligofectamine (Invitrogen) for NCI-H292 cells and 4.2 μg siRNA duplex per 6-well plate as previously described (Elbashir et al., 2001). Cos-7 cells were transfected using Lipofectamine 2000 (Invitrogen) according to the manufacturer's protocol. Briefly, 8.4 μg siRNA duplex per 6 cm dish were incubated with 10 μL Lipofectamine 2000 in 1 mL serum-free medium for 20 minutes. The transfection mixture was added to the cell culture medium containing serum and, after 6 h, cells were washed and incubated in medium containing serum overnight. NCI-H292 and Cos-7 cells were serum-starved and assayed 2 d after transfection. Highest efficiencies in silencing target genes were obtained by using mixtures of siRNA duplexes targeting different regions of the gene of interest. Sequences of siRNA used were
(§5) Specific silencing of targeted genes was confirmed by RT-PCR analysis. RNA isolated using RNeasy Mini Kit (Qiagen, Hilden, Germany) was reverse transcribed using AMV Reverse Transcriptase (Roche, Mannheim, Germany). PuReTaq Ready-To-Go PCR Beads (Amersham Biosciences, Piscataway, N.J.) were used for PCR amplification. Primers (Sigma Ark, Steinheim, Germany) were
(§6) PCR products were subjected to electrophoresis on a 2.5% agarose gel and DNA was visualized by ethidium bromide staining.

ADAM10 = experiment: as above; type: cell-based, human; settings: 2 days after transfection, FIG. 5A
Method: as §3, §4, §5, §6

ADAM15 = experiment: as above; type: cell-based, human; settings: 2 days after transfection, FIG. 5A
Method: as §3, §4, §5, §6

COc1cc2ncnc(Nc3cccc(Cl)c3)c2cc1OC [AG1478]
hyperosmolarity and oxidative stress-induced ERK1/2 activation (ERK1/2 [1]): substantially blocked
hyperosmolarity and oxidative stress-induced ERK1/2 activation (ERK1/2 [2]): substantially blocked
p38 phosphorylation in response to stress agents (p38 [3]): did not affect
sorbitol and hydrogen peroxide-induced activation of ERK1/2 (ERK1/2 [4]): blocked

CNC(=O)[C@H](Cc1ccccc1)NC(=O)[C@H](CC(C)C)[C@H](CSc1cccs1)C(=O)NO [BB94, Batimastat]
inhibition of stress-induced EGFR activation (EGFR [5]; BB94 10 μM 20 min, sorbitol 0.3 M or hydrogen peroxide 200 μM 10 min, printed 'inhibited ... to 50%'): 50%

COc1cccc(-c2cc(=O)c3ccccc3o2)c1N [PD98059]
stress-induced EGFR activation (EGFR [6]; FIG. 2B): did not affect

Cc1ccc(-c2nn(C(C)(C)C)c3ncnc(N)c23)cc1 [PP1]
EGFR activation by oxidative stress (EGFR [6]): did not achieve specific inhibition

CC(C)(C)n1nc(-c2ccc(Cl)cc2)c2c(N)ncnc21 [PP2]
EGFR activation by oxidative stress (EGFR [6]): did not achieve specific inhibition

Oc1ccc(-c2nc(-c3ccncc3)c(-c3ccc(F)cc3)[nH]2)cc1 [SB202190]
EGF-induced receptor phosphorylation (EGFR [6]; SB202190 10 μM 30 min, EGF 2 ng/mL 3 min, FIG. 2B): unaffected
LPA-induced receptor phosphorylation (EGFR [6]; SB202190 10 μM 30 min, LPA 10 μM 3 min, FIG. 2B): unaffected
stress-induced EGFR activation (EGFR [6]; FIG. 2B): completely abrogated

COc1cccc2c1C(=O)c1c(O)c3c(c(O)c1C2=O)C[C@@](O)(C(=O)CO)C[C@@H]3O[C@H]1C[C@H](N)[C@H](O)[C@H](C)O1 [doxorubicin]
p38 activation (p38 [7]): induces p38 activation

HB-EGF (from UniProt Q99075 20-208) (ligand)
JNK activity in response to oxidative stress (Cos-7 cells; kinase assay with GST-c-JUN) [8]: 50%

siRNA against ADAM9: mixture of 21-nucleotide siRNA duplexes, SEQ ID NO 1 and 2, targeting ADAM9 (chain 1 AAUCACUGUGGAGACAUUUGCTT; chain 2 AAACUUCCAGUGUGUAGAUGCTT; chemistry not fully specified)
stress-induced EGFR activation upon siRNA transfection (EGFR [5]; FIG. 5C): participate in the stress response
knockdown of target gene expression (ADAM9) (ADAM9): efficient and specific knockdown

siRNA against ADAM10: mixture of 21-nucleotide siRNA duplexes, SEQ ID NO 3 and 4, targeting ADAM10 (chain 1 AAUGAAGAGGGACACUUCCCUTT; chain 2 AAGUUGCCUCCUCCUAAACCATT; chemistry not fully specified)
EGFR activation after sorbitol or hydrogen peroxide upon siRNA transfection (EGFR [6]): involved in EGFR activation
knockdown of target gene expression (ADAM10) (ADAM10): efficient and specific knockdown

siRNA against ADAM12: mixture of siRNA duplexes, SEQ ID NO 5 and 6, targeting ADAM12 (chain 1 AACCUCGCUGCAAAGAAUGUGTT; chain 2 AAGACCUUGATACGACUGCUGTT; chemistry not fully specified)
EGFR activation upon siRNA transfection, hydrogen peroxide treatment only (EGFR [5]; 200 μM hydrogen peroxide, FIG. 5C): participate in the stress response

siRNA against ADAM15: mixture of siRNA duplexes, SEQ ID NO 7 and 8, targeting ADAM15 (chain 1 AACUCCAUCUGUUCUCCUGACTT; chain 2 AAAUUGCCAGCUGCGCCCGUCTT; chemistry not fully specified)
knockdown of target gene expression (ADAM15) (ADAM15): efficient and specific knockdown

B1: siRNA against ADAM17: mixture of siRNA duplexes, SEQ ID NO 9 to 11, targeting ADAM17 (nucleic acid)
chain 1: AAAGUUUGCUUGGCACACCUUTT
chain 2: AAGUAAGGCCCAGGAGUGUUTT
chain 3: AACAUAGAGCCACUUUGGAGATT
modifications: chemistry not fully specified
stress-induced EGFR activation upon siRNA transfection (EGFR [5]; FIG. 5C): involved in stress-induced EGFR activation
EGFR activation after sorbitol or hydrogen peroxide upon siRNA transfection (EGFR [6]): involved in EGFR activation
